This series addresses UBE3A-ATS. In words: mouse, dose not given. To be noted: ASO.

Our source for the 3 h FOB score values is the OligoGym collection.

HELM strings list units from the 5' end as sugar, base in round brackets, then linkage (d deoxyribose, r ribose, m 2'-O-methyl, p phosphodiester). Strings are as the collection lists them; they lack the last nucleoside at the 3' end of the tested compound. [moe] = 2'-O-(2-methoxyethyl) (MOE); [sp] = phosphorothioate linkage; [m5C] = 5-methylcytosine

Regarding “RNA1{[moe](A)[sp].[moe]([m5C])p.[moe](T)p.[moe](T)p.[moe]([m5C])p.d(A)[sp].d(T)[sp].d([m5C])[sp].d(A)[sp].d(A)[sp].d(T)[sp].d(A)[sp].d(T)[sp].d(T)[sp].d(T)[sp].[moe]([m5C])p.[moe]([m5C])p.[moe]([m5C])[sp].[moe]([m5C])}$$$$ (last 3' nucleoside missing)”, the 3 h FOB score was 0 score 0-7.

The substance “RNA1{[moe](T)[sp].[moe](T)p.[moe](G)p.[moe](G)p.[moe]([m5C])p.d(T)[sp].d(T)[sp].d(T)[sp].d(A)[sp].d(T)[sp].d(A)[sp].d([m5C])[sp].d(T)[sp].d(T)[sp].d(T)[sp].[moe](A)p.[moe]([m5C])p.[moe]([m5C])[sp].[moe]([m5C])}$$$$ (last 3' nucleoside missing)” yielded a 3 h FOB score of 1 score 0-7.

The substance “RNA1{[moe]([m5C])[sp].[moe](A)p.[moe](T)p.[moe](A)p.[moe](T)p.d(G)[sp].d(A)[sp].d(A)[sp].d(G)[sp].d([m5C])[sp].d(T)[sp].d(A)[sp].d(T)[sp].d(A)[sp].d(G)[sp].[moe](G)p.[moe](T)p.[moe](A)[sp].[moe]([m5C])}$$$$ (last 3' nucleoside missing)” showed a 3 h FOB score of 1 score 0-7.

“RNA1{[moe](A)[sp].[moe](G)p.[moe](T)p.[moe](G)p.[moe](T)p.d([m5C])[sp].d(A)[sp].d(T)[sp].d(A)[sp].d(T)[sp].d(G)[sp].d(T)[sp].d(A)[sp].d(G)[sp].d([m5C])[sp].[moe](A)p.[moe](A)p.[moe](T)[sp].[moe](T)}$$$$ (last 3' nucleoside missing)” had a 3 h FOB score of 4 score 0-7.

On to “RNA1{[moe](T)[sp].[moe]([m5C])p.[moe](A)p.[moe](G)p.[moe](T)[sp].d(T)[sp].d(A)[sp].d(G)[sp].d(G)[sp].d(T)[sp].d(T)[sp].d(A)[sp].d(G)[sp].[moe](T)p.[moe](G)p.[moe]([m5C])[sp].[moe](A)}$$$$ (last 3' nucleoside missing)”, for which the 3 h FOB score was 4.3 score 0-7.

In turn, “RNA1{[moe](T)[sp].[moe](G)p.[moe](A)p.[moe](G)p.[moe]([m5C])p.[moe](T)[sp].d(A)[sp].d(T)[sp].d([m5C])[sp].d(T)[sp].d(G)[sp].d(T)[sp].d(A)[sp].d([m5C])[sp].[moe](A)p.[moe](A)[sp].[moe](A)}$$$$ (last 3' nucleoside missing)” gave a 3 h FOB score of 5 score 0-7.

The substance “RNA1{[moe](G)[sp].[moe](T)p.[moe](G)p.[moe]([m5C])p.[moe](A)[sp].d(T)[sp].d(A)[sp].d([m5C])[sp].d([m5C])[sp].d([m5C])[sp].d(A)[sp].d(G)[sp].d(G)[sp].[moe](G)p.[moe](T)p.[moe](A)[sp].[moe](G)}$$$$ (last 3' nucleoside missing)” displayed a 3 h FOB score of 5.5 score 0-7.

For the substance “RNA1{[moe](G)[sp].[moe](T)p.[moe](G)p.[moe](T)p.[moe](T)p.d(T)[sp].d(T)[sp].d(T)[sp].d([m5C])[sp].d([m5C])[sp].d(A)[sp].d(T)[sp].d(T)[sp].d(T)[sp].d(T)[sp].[moe](T)p.[moe]([m5C])p.[moe](T)[sp].[moe]([m5C])}$$$$ (last 3' nucleoside missing)”, the 3 h FOB score was 0 score 0-7.

Consider “RNA1{[moe](G)[sp].[moe]([m5C])p.[moe]([m5C])p.[moe](A)p.[moe](G)[sp].d(G)[sp].d(T)[sp].d(G)[sp].d(T)[sp].d([m5C])[sp].d(T)[sp].d(T)[sp].d(A)[sp].[moe](T)p.[moe](A)p.[moe](T)[sp].[moe]([m5C])}$$$$ (last 3' nucleoside missing)”, for which the 3 h FOB score was 0 score 0-7.

The substance “RNA1{[moe]([m5C])[sp].[moe](T)p.[moe](T)p.[moe](A)p.[moe](G)p.d(G)[sp].d([m5C])[sp].d(A)[sp].d(A)[sp].d(T)[sp].d(G)[sp].d(G)[sp].d(A)[sp].d([m5C])[sp].d(T)[sp].[moe](T)p.[moe](A)p.[moe](G)[sp].[moe](T)}$$$$ (last 3' nucleoside missing)” had a 3 h FOB score of 1 score 0-7.

With “RNA1{[moe](G)[sp].[moe](T)p.[moe](G)p.[moe]([m5C])p.[moe]([m5C])p.d(T)[sp].d(T)[sp].d(T)[sp].d([m5C])[sp].d(T)[sp].d(A)[sp].d(T)[sp].d(T)[sp].d(T)[sp].d([m5C])[sp].[moe](A)p.[moe](G)p.[moe](A)[sp].[moe]([m5C])}$$$$ (last 3' nucleoside missing)”, the 3 h FOB score came out at 0 score 0-7.

Substance “RNA1{[moe](G)[sp].[moe](T)p.[moe](G)p.[moe](T)p.[moe](G)p.[moe](T)p.d(T)[sp].d(T)[sp].d(T)[sp].d(T)[sp].d([m5C])[sp].d([m5C])[sp].d(A)[sp].d(T)[sp].d(T)[sp].d(T)[sp].[moe](T)p.[moe](T)[sp].[moe]([m5C])}$$$$ (last 3' nucleoside missing)” came in with a 3 h FOB score of 0 score 0-7.

In turn, “RNA1{[moe](T)[sp].[moe](T)p.[moe](A)p.[moe](T)p.[moe](T)p.d(G)[sp].d(G)[sp].d(T)[sp].d([m5C])[sp].d(A)[sp].d(T)[sp].d([m5C])[sp].d(T)[sp].d([m5C])[sp].d(G)[sp].[moe](G)p.[moe](G)p.[moe](T)[sp].[moe](A)}$$$$ (last 3' nucleoside missing)” showed a 3 h FOB score of 4 score 0-7.

As to “RNA1{[moe](G)[sp].[moe](T)p.[moe](A)p.[moe](G)p.[moe]([m5C])p.d(T)[sp].d(A)[sp].d(T)[sp].d(A)[sp].d(G)[sp].d(G)[sp].d(T)[sp].d(G)[sp].d(T)[sp].d([m5C])[sp].[moe](A)p.[moe]([m5C])p.[moe](A)[sp].[moe](T)}$$$$ (last 3' nucleoside missing)”, the 3 h FOB score is 6.2 score 0-7.

“RNA1{[moe](T)[sp].[moe]([m5C])p.[moe](A)p.[moe]([m5C])p.d([m5C])[sp].d(A)[sp].d(T)[sp].d(T)[sp].d(T)[sp].d(T)[sp].d(G)[sp].d(A)[sp].d([m5C])[sp].d([m5C])[sp].[moe](T)p.[moe](T)p.[moe]([m5C])p.[moe](T)[sp].[moe](T)}$$$$ (last 3' nucleoside missing)” registered a 3 h FOB score of 2 score 0-7.

Take “RNA1{[moe](G)[sp].[moe](A)p.[moe](T)p.[moe](A)p.[moe](G)p.d(G)[sp].d(G)[sp].d(T)[sp].d(T)[sp].d(T)[sp].d(A)[sp].d(G)[sp].d(G)[sp].d(T)[sp].d([m5C])[sp].[moe](A)p.[moe](A)p.[moe]([m5C])[sp].[moe]([m5C])}$$$$ (last 3' nucleoside missing)”: the 3 h FOB score was 5 score 0-7.

For the substance “RNA1{[moe](T)[sp].[moe](G)p.[moe](T)p.[moe](G)p.[moe]([m5C])[sp].d(A)[sp].d(T)[sp].d(A)[sp].d([m5C])[sp].d([m5C])[sp].d([m5C])[sp].d(A)[sp].d(G)[sp].[moe](G)p.[moe](G)p.[moe](T)[sp].[moe](A)}$$$$ (last 3' nucleoside missing)”, the 3 h FOB score came out at 1 score 0-7.

Substance “RNA1{[moe]([m5C])[sp].[moe]([m5C])p.[moe](A)p.[moe](G)p.[moe]([m5C])p.d([m5C])[sp].d(A)[sp].d(G)[sp].d(G)[sp].d(T)[sp].d(G)[sp].d(T)[sp].d([m5C])[sp].d(T)[sp].d(T)[sp].[moe](A)p.[moe](T)p.[moe](A)[sp].[moe](T)}$$$$ (last 3' nucleoside missing)” yielded a 3 h FOB score of 3.8 score 0-7.
